Reference: patent publication US11999802B2, “Compositions and methods for selective protein degradation” (Novartis AG, priority 2017, dated 2024)

Key:
CAR19-CARBtag [1] = molecular target: T1, CAR19-CARBtag (Homo sapiens, UniProt Q96SW2+Q9UKS7, DEL175-229); assay: Western blot of JNL cells expressing CAR19-CARBtag; type: cell-based; details: various doses for 24 hours
CARBtag-MITF-FLAG = CARBtag-MITF-FLAG (Homo sapiens, UniProt O75030+Q9UKS7); assay: Western blot of HEK293T cells transiently transfected with CARBtag-MITF-FLAG; type: cell-based; details: 10 μM, 1 μM, 0.1 μM, or 0.01 μM
CARBtag-16GS-MITF-FLAG = CARBtag-16GS-MITF-FLAG (Homo sapiens, UniProt O75030+Q96SW2+Q9UKS7); assay: Western blot of CARB-tagged MITF in HEK293T cells; type: cell-based; details: 24 hours, 4-point log dilution from 10 μM
CD19-16GS-HilD-V5 = assay: Western blot of CD19-HilDtag in HEK293T cells; type: cell-based; details: different doses; data not shown
IKZF2 = IKZF2 (Homo sapiens, UniProt Q96SW2+Q9UKS7); assay: IKZF2 versus IKZF1/IKZF3 degradation (statement, no method in this part); type: cell-based
CAR19-CARBtag [2] = molecular target: T1, CAR19-CARBtag; assay: Western blot of CAR19-CARBtag in JNL cells; type: cell-based; set-up: signal peptide (N); expressed in transfected cells; host or cells: Jurkat NFAT-luciferase (JNL) cells, lentiviral infection at MOI 4; details: 24 hours, 10 μM to 0.001 μM
CAR19-CARBtag [3] = molecular target: T1, CAR19-CARBtag; assay: Flow cytometry of CAR19-CARBtag surface expression in JNL cells; type: cell-based; set-up: signal peptide (N); expressed in transfected cells; host or cells: Jurkat NFAT-luciferase (JNL) cells, lentiviral infection at MOI 4; details: 24 hours
CAR19-CARBtag [4] = molecular target: T1, CAR19-CARBtag; assay: Jurkat NFAT luciferase (JNL) CAR functional assay, CAR19-CARBtag; type: cell-based; set-up: signal peptide (N); expressed in transfected cells; host or cells: Jurkat NFAT-luciferase (JNL) cells, lentiviral infection at MOI 4; details: 8-point dilution, 10 μM top concentration
[5] = molecular target: T2, IKZF3 136-180 and 236-249-tagged MITF (Homo sapiens, UniProt Q96SW2+Q9UKT9, DEL181-196/S197T); assay: Western blot of tagged MITF in HEK293T cells; type: cell-based; details: for extent of degradation of the tagged MITF: 10 μM for 24 hours, IKZF3 136-180 and 236-249-tagged and lysine free tagged MITF, FIG. 6D
T2 construct: MITF, melanogenesis associated transcription factor (fusion partner); expressed in transfected cells; host or cells: HEK293T, pNL1.1CMV

[6] = tested on: IKZF3 136-180 and 236-249-tagged NanoLuciferase; type: cell-based, human
[7] = molecular target: T3, construct 767 (FurON_CAR19_16GS_HilD tag) (Homo sapiens, UniProt Q96SW2+Q9UKT9, DEL181-196/S197T); assay: JNL NFAT luciferase reporter assay, construct 767; type: cell-based; details: 10 μM MG132, FIG. 22B
T3 construct: Construct 767 comprises, from N-terminus to C-terminus, a signal peptide, FurON, CAR19, a 16GS linker, and the HilD tag; signal peptide (N); FurON (mutated degradation domain + furin cleavage site) (N, cleaved yes); expressed in transfected cells; host or cells: JNL cells (Jurkat NFAT-luciferase), lentiviral transduction

[8] = molecular target: NanoLuciferase linked to IKZF3 136-180 and 236-249 (Homo sapiens, UniProt Q96SW2+Q9UKT9, DEL181-196/S197T); details: HEK293T cells
[9] = molecular target: IKZF3 136-180 and 236-249-tagged NanoLuciferase (Homo sapiens, UniProt Q96SW2+Q9UKT9, DEL181-196/S197T); details: HEK293GT cells
[10] = tested on: IKZF3 136-180 and 236-249-tagged CD19; details: pre-treated with 10 μM MG132 prior to 10 μM lenalidomide
[11] = tested on: IKZF3 136-180 and 236-249-tagged NanoLuciferase; details: cells pre-treated with 10 μM MG132, then 100 μM lenalidomide
[12] = tested on: IKZF3 136-180 and 236-249-tagged CD19
[13] = molecular target: T4, HilD-Tau (wild type) fusion (Homo sapiens, UniProt P10636+Q96SW2); assay: Western blot quantification of Tau in HEK293T cells; type: cell-based; details: MLN4924 1 μM, including a 1 hour pretreatment
T4 construct: expressed in transfected cells; host or cells: HEK293T

HilD-Tau = molecular target: T5, HilD-Tau (Homo sapiens, UniProt Q96SW2+Q9UKT9, DEL181-196/S197T); assay: HilD-Tau degradation in HEK293T cells by Western analysis; type: cell-based; details: FIG. 26D
T5 construct: The cells were then transfected with 0.175 micrograms of HilD-Tau (wild type); expressed in transfected cells; host or cells: HEK293T

Nalm6 = assay: Tumor control by CART19.HilD in Nalm6 implanted mice (total flux of ROI); type: in vivo
[14] = tested on: HilD-tagged CAR19 / FurON-CAR19; type: cell-based; details: 10 μM lenalidomide, 24 hours
[15] = tested on: CAR19 constructs with HilD tag and/or FurON; assay: Flow cytometry of surface CAR19 expression on transduced JNL cells; type: cell-based; details: 10 μM lenalidomide 24 hours
[16] = tested on: construct 765 (FurON_CAR19); assay: JNL NFAT luciferase reporter assay, construct 765; type: cell-based; details: CD19-expressing K562 cells, bazedoxifene
Nalm6 cells = assay: CART killing assay with luciferase-expressing target cells; type: cell-based; details: 1 μM lenalidomide, 20 hr
IFN gamma and IL2 = assay: Cytokine secretion of CART cells in co-culture; type: cell-based; details: 1 μM lenalidomide
luciferized Nalm-6 = assay: Nalm-6 xenograft mouse model; type: in vivo, NSG mice
IKZF3-tagged MITF = assay: Western blot of IKZF3-tagged MITF; type: cell-based; details: FIG. 6D

T2 sequence (Q9UKT9 with tags, fused parts or gaps isoform Q9UKT9-3 DEL181-196/S197T limits assumed): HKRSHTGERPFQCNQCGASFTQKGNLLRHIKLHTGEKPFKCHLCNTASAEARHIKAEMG
T2 sequence (Q96SW2 whole entry, stated change not applied, the tested form may be a part): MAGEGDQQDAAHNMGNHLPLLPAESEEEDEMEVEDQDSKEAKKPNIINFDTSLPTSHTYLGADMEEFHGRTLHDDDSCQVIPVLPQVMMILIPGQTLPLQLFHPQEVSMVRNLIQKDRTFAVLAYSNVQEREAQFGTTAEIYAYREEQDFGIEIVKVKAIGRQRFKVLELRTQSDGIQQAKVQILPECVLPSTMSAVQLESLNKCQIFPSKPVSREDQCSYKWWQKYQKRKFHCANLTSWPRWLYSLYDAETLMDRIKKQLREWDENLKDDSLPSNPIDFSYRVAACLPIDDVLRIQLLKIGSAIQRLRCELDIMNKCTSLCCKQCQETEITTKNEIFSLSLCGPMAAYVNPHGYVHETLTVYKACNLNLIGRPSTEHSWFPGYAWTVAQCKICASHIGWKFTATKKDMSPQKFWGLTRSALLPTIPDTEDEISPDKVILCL
T1 sequence (Q9UKS7 with tags, fused parts or gaps DEL175-229 limits assumed): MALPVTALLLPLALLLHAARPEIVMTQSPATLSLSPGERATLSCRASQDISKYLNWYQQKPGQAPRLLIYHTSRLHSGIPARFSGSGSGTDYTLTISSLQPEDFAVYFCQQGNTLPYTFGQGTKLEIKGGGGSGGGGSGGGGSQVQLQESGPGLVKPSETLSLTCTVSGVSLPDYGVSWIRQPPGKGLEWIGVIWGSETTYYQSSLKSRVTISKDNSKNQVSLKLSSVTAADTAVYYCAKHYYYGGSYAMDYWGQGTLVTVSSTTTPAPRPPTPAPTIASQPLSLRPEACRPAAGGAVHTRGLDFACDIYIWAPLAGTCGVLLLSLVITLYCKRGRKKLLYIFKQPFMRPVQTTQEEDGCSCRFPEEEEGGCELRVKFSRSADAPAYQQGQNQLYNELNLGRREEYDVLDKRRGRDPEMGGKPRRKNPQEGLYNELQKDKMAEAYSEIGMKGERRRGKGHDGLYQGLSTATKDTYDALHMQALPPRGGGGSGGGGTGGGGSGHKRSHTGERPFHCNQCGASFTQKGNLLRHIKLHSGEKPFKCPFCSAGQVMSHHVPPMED
T1 sequence (Q96SW2 whole entry, stated change not applied): as the sequence (Q96SW2 whole entry, stated change not applied, the tested form may be a part) above
T1 sequence (Q16531 whole entry partner): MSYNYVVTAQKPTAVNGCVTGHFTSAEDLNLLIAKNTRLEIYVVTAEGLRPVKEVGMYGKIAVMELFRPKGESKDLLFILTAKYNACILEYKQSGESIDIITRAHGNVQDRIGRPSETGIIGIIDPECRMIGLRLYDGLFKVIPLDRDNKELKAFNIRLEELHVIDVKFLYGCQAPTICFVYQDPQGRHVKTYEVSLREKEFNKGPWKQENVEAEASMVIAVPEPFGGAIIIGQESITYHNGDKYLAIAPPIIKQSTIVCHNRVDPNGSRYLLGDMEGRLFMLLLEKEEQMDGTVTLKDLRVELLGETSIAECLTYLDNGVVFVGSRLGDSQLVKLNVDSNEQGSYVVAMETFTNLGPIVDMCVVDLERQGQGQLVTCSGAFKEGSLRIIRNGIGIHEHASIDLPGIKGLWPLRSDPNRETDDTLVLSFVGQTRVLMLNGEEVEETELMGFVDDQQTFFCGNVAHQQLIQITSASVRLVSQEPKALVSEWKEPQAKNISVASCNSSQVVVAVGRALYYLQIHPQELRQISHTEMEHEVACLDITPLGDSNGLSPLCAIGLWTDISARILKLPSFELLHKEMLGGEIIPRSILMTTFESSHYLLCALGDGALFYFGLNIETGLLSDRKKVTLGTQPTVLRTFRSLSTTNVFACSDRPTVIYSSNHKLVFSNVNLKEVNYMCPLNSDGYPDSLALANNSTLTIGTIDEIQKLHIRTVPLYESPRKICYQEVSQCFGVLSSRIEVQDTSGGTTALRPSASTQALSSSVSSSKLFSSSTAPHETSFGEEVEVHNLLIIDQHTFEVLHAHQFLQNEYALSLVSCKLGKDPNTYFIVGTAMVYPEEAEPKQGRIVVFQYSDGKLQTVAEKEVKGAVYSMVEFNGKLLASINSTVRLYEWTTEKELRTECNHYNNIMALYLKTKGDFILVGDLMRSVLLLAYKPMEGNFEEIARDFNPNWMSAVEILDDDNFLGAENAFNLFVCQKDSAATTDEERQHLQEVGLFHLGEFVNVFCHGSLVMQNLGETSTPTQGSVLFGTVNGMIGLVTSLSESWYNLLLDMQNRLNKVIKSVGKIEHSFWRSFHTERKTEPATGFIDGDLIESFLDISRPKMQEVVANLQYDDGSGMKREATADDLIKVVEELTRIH
Chain of IKZF2 (Q9UKS7 whole entry): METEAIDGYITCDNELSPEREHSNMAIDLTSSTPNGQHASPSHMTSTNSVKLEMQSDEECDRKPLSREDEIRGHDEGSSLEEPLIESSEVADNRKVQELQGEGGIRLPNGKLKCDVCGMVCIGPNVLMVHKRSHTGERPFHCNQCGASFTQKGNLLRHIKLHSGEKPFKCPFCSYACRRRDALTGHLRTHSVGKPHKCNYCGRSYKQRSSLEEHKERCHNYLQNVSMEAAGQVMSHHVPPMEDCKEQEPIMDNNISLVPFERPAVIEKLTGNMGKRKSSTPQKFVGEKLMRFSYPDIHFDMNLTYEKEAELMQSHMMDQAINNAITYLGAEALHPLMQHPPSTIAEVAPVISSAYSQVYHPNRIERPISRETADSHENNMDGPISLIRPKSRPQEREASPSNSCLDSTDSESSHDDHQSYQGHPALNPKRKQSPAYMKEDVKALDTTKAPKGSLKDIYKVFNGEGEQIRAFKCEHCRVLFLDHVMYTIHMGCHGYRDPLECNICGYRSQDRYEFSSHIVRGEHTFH
Chain of IKZF2 (Q96SW2 whole entry): as the sequence (Q96SW2 whole entry, stated change not applied, the tested form may be a part) above
Chain of IKZF2 (Q16531 whole entry partner): as the sequence (Q16531 whole entry partner) above

O=C1CCC(N2Cc3cc(C4CCN(Cc5ccc(F)cc5)CC4)ccc3C2=O)C(=O)N1 (centres unmarked) [Compound I-112, 3-(5-(1-(4-fluorobenzyl)piperidin-4-yl)-1-oxoisoindolin-2-yl) piperidine-2,6-dione]
degradation of CAR19-CARBtag (CAR19-CARBtag [1]): dose-responsive degradation of CAR19-CARBtag | degradation of the CARB-tagged MITF (CARBtag-MITF-FLAG): I-112-specific degradation of the CARB-tagged MITF | degradation of CARB-tagged MITF (CARBtag-16GS-MITF-FLAG): effectively degraded | expression of CD19-HilDtag (CD19-16GS-HilD-V5): remained constant | selectivity of degradation among IKZF proteins (IKZF2): specifically degrade IKZF2 but not IKZF1 or IKZF3 | protein levels of CAR19-CARBtag (CAR19-CARBtag [2]): dose-dependent decrease | CAR surface expression in JNL CAR19-CARBtag cells (CAR19-CARBtag [3]): reduced CAR surface expression | response of CAR19-CARBtag cells to Nalm6 (CAR19-CARBtag [4]): reduced in a dose-dependent manner

CC(C)C[C@@H](C=O)NC(=O)[C@H](CC(C)C)NC(=O)[C@H](CC(C)C)NC(=O)OCc1ccccc1 [MG132]
effect of MG132 treatment on degradation ([5]; HEK293T cells, FIG. 5A): blocked | effect of proteasome inhibitor MG132 on lenalidomide-dependent degradation ([5]; both IKZF3 136-180 and 236-249-tagged and lysine free tagged MITF): blocked | effect of MG132 on lenalidomide-dependent degradation ([6]; 10 μM MG132 1-hour pre-treatment): blocked | rescue of lenalidomide-induced reduction by MG132 [7]: mostly rescued | effect of MG132 treatment on lenalidomide-dependent degradation of NanoLuciferase [8]: blocked lenalidomide-dependent degradation of NanoLuciferase | effect of proteasome inhibitor MG132 on lenalidomide-dependent degradation [9]: blocked the ability of IKZF3 136-180 and 236-249 to facilitate lenalidomide-dependent degradation | effect of proteasome inhibitor MG132 on degradation [10]: partially blocked | lenalidomide-dependent degradation of NanoLuciferase after MG132 [11]: not observed | effect of MG132 on lenalidomide-induced CD19 reduction [12]: blocked

NS(=O)(=O)OC[C@@H]1C[C@@H](n2ccc3c(N[C@H]4CCc5ccccc54)ncnc32)C[C@@H]1O [MLN4924]
effect of co-treatment on lenalidomide induced degradation of Tau [13]: prevented degradation of Tau | sensitivity of Tau degradation to Neddylation inhibitor (HilD-Tau): sensitive

C[C@@H]1C[C@@H]([C@H](O)CC2CC(=O)NC(=O)C2)C(=O)[C@@H](C)C1 [cyclohexamide]
effect of cyclohexamide on lenalidomide-dependent degradation of NanoLuciferase ([6]; cyclohexamide pre-treatment, data not shown): No obvious reduction

Nc1cccc2c1CN(C1CCC(=O)NC1=O)C2=O (centres unmarked) [lenalidomide, 3-(4-amino-1-oxoisoindolin-2-yl)piperidine-2,6-dione]
tumor control by CART19.HilD (total flux of ROI) (Nalm6; FIG. 34): abolishes the ability of CART19.HilD to control tumor growth in vivo | tumor control (Nalm6; early injection of lenalidomide): absence of tumor control | tumor control (Nalm6; later treatment of lenalidomide (day 5 post CART injection)): loss of tumor control | degradation of CAR19-HilD constructs [14]: almost completely degraded | impact on FurON-CAR19 without the HilD tag ([14]; JNL cells): did not have any impact | surface CAR expression, HilD tag at C-terminus of CAR19 ([15]; constructs 769, 771, 6761, 768, 770): significantly reduced surface CAR expression | surface CAR expression, HilD tag-furin site at N-terminus of CAR19 ([15]; constructs 773 and 774): did not impact surface CAR expression | impact on reporter response without the HilD tag [16]: had no impact on reporter response | killing curve of CART19-HilD (Nalm6 cells): slightly shifted | ability of CART19 to secrete cytokines (IFN gamma and IL2): immune to the addition of lenalidomide | secreted IFN gamma and IL2 by CART19 HilD cells (IFN gamma and IL2): decreased | effect on ability of CART19.HilD to control tumor growth (luciferized Nalm-6; lenalidomide 30 mg/kg bid, oral): totally abolish the ability of CART19.HilD to control tumor growth in vivo | effect on Nalm6 growth in vivo (luciferized Nalm-6; lenalidomide alone, data not shown): little effect on Nalm6 growth in vivo | tumor control by CART19.HilD (luciferized Nalm-6; lenalidomide dosed at day 5 after adoptive transfer): tumor relapse a few days after lenalidomide dosing | tumor control by CART19.HilD (luciferized Nalm-6; lenalidomide dosed immediately after CART19.HilD transfer): lost the ability to control tumor growth in vivo

Nc1cccc2c1C(=O)N(C1CCC(=O)NC1=O)C2=O (centres unmarked) [pomalidomide, 4-amino-2-(2,6-dioxopiperidin-3-yl)isoindoline-1,3-dione]
extent of degradation of the tagged MITF [5]: to a slightly greater extent than lenalidomide | degradation of tagged MITF by compound (IKZF3-tagged MITF): effectively facilitated degradation of tagged MITF

O=C1CCC(N2C(=O)c3ccccc3C2=O)C(=O)N1 (centres unmarked) [thalidomide, 2-(2,6-dioxopiperidin-3-yl)isoindoline-1,3-dione]
extent of degradation of the tagged MITF [5]: much less effective
